ChEMBL document CHEMBL1156984, “Synthesis and biological evaluation of piperazinyl heterocyclic antagonists of the gonadotropin releasing hormone (GnRH) receptor” (Bioorg Med Chem Lett, 2010)

target: T1, Gonadotropin-releasing hormone receptor (Rattus norvegicus, UniProt P30969); test: Displacement of [125I]D-Trp6-GnRH from rat recombinant GNRH receptor by scintillation counting
T1 sequence (P30969 whole entry): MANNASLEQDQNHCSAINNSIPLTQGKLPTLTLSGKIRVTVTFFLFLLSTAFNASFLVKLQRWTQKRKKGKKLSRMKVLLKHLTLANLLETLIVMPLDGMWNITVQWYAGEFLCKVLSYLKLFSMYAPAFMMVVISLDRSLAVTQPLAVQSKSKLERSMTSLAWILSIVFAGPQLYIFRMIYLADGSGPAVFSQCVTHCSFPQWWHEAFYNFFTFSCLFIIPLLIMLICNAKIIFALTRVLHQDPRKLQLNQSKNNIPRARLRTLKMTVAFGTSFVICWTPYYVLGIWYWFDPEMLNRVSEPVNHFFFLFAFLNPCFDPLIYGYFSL

SMILES | IC50 [nM]
CCc1nc(CN2CCN(c3cncc4[nH]c(-c5ccc(C(C)(C)C)cc5)nc34)CC2)c(C)[nH]1 | 290
CC(C)(C)c1ccc(-c2nc3c(N4CCN(Cc5ccc6nccnc6c5)CC4)cccc3[nH]2)cc1 | 72
CC(C)(C)c1ccc(-c2cn3cccc(N4CCN(Cc5c[nH]c(=O)[nH]c5=O)CC4)c3n2)cc1 | 95
CC(C)(C)c1ccc(-c2cn3cccc(N4CCN(Cc5ccc6nccnc6c5)CC4)c3n2)cc1 | 81
CC(C)(C)c1ccc(-c2cn3cccc(N4CCN(Cc5cnc6ccccc6n5)CC4)c3n2)cc1 | 29

target: T1, Gonadotropin-releasing hormone receptor; test: Antagonist activity at GNRH receptor in rat pituitary cells assessed as inhibition of D-Trp6-GnRH-induced LH accumulation after 3 hrs by RIA; type: functional, cell-based, Pituitary gland cell

SMILES | IC50 [nM]
CC(C)(C)c1ccc(-c2nc3c(N4CCN(Cc5ccc6nccnc6c5)CC4)cccc3[nH]2)cc1 | 360
CC(C)(C)c1ccc(-c2cn3cccc(N4CCN(Cc5c[nH]c(=O)[nH]c5=O)CC4)c3n2)cc1 | 4400
CC(C)(C)c1ccc(-c2cn3cccc(N4CCN(Cc5ccc6nccnc6c5)CC4)c3n2)cc1 | 3400
CC(C)(C)c1ccc(-c2cn3cccc(N4CCN(Cc5cnc6ccccc6n5)CC4)c3n2)cc1 | 1500

target: T2, Gonadotropin-releasing hormone receptor (Homo sapiens, UniProt P30968); test: Displacement of [125I]D-Trp6-GnRH from human recombinant GNRH receptor by scintillation counting
T2 sequence (P30968 whole entry): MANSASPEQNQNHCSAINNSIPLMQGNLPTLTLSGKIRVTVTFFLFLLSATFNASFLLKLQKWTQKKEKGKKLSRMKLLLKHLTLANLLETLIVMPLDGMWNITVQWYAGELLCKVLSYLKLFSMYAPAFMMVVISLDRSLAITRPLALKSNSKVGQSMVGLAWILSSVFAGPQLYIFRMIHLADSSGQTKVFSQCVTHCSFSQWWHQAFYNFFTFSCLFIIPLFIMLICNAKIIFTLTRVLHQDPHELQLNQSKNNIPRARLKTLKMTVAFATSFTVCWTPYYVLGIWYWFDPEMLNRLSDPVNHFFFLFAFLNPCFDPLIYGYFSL

SMILES | IC50 [nM]
CCc1nc(CN2CCN(c3cncc4[nH]c(-c5ccc(C(C)(C)C)cc5)nc34)CC2)c(C)[nH]1 | 58
CCc1nc(CN2CCN(c3cccc4nc(-c5ccc(C(C)(C)C)cc5)cn34)CC2)c(C)[nH]1 | > 10000
CCc1nc(CN2CCN(c3cccc4nc(-c5ccc(C(C)(C)C)cc5)oc34)CC2)c(C)[nH]1 | > 10000
CCc1nc(CN2CCN(c3cccc4nc(-c5ccc(C(C)(C)C)cc5)sc34)CC2)c(C)[nH]1 | > 10000
CC(C)(C)c1ccc(-c2cn3cccc(N4CCN(Cc5c[nH]c(=O)[nH]c5=O)CC4)c3n2)cc1 | 4.3
CC(C)(C)c1ccc(-c2cn3cccc(N4CCN(Cc5ccc6nccnc6c5)CC4)c3n2)cc1 | 47
CC(C)(C)c1ccc(-c2cn3cccc(N4CCN(Cc5cnc6ccccc6n5)CC4)c3n2)cc1 | 44

target: T2, Gonadotropin-releasing hormone receptor; test: Antagonist activity at human recombinant GNRH receptor assessed as inhibition of D-Trp6-GNRH-induced IP accumulation after 1 hr by rapid filtration assay; type: functional

SMILES | IC50 [nM]
CC(C)(C)c1ccc(-c2cn3cccc(N4CCN(Cc5c[nH]c(=O)[nH]c5=O)CC4)c3n2)cc1 | 20
CC(C)(C)c1ccc(-c2cn3cccc(N4CCN(Cc5ccc6nccnc6c5)CC4)c3n2)cc1 | 90
CC(C)(C)c1ccc(-c2cn3cccc(N4CCN(Cc5cnc6ccccc6n5)CC4)c3n2)cc1 | 39
